Measurements: ChEMBL document CHEMBL1201862, “PubChem BioAssay data set” (2004)
Active and inactive are the calls of the source.

Legend:
[1] = target: Mitogen-activated protein kinase 10 (Homo sapiens, UniProt P53779); experiment: Dose response biochemical screening assay for inhibitors of c-Jun N-Terminal Kinase 3 (JNK3). [Related pubchem assays: 746 ]
[2] = rise of 2N DNA cells, HeLa – IC50, dose response (AID 1117349); type: functional, cell-based
[3] = RKO cell viability reduction, dose response, CellTiter-Glo luminescence (AID 1117322); type: functional
[4] = cytotoxicity toward HCT116 cells – cell-based, CellTiter-Glo luminescence, IC50, dose response (AID 1117332); type: functional; conditions: HCT-116
[5] = cytotoxicity toward Colo320 cells – cell-based, CellTiter-Glo luminescence, IC50, dose response (AID 1117334); type: functional; conditions: COLO 320
[6] = rise of 4N DNA cells, HeLa – IC50, dose response (AID 1117351); type: functional, cell-based
[7] = cytotoxicity toward HT-29 cells – cell-based, CellTiter-Glo luminescence, IC50, dose response (AID 1117330); type: functional
[8] = HCT116 cell viability decrease, GSK3B pretreatment – CellTiter-Glo, IC50, dose response (AID 1117339); type: functional; conditions: HCT-116
[9] = Trypanosoma cruzi growth suppression in host cells – NIH3T3 host cells, beta-gal luminescence, confirmation (AID 2044); type: functional, cell-based;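 note: intracellular parasites grown in NIH/3T3 mouse fibroblasts as host cells; luminescent beta-galactosidase reporter signal from transgenic T. cruzi replicating inside host cells; inhibitors lower the luminescence signal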
[10] = NIH3T3 cell viability loss – ATP luminescence, mouse fibroblasts, counter-screen, dose response (AID 2010); type: functional, cell-based;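 note: cells exposed to compound for about 90 hours before reading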
cells [11] = experiment: cells
[12] = target: Lysosomal acid glucosylceramidase (Homo sapiens, UniProt P04062); experiment: Dose response cell-based high throughput screening assay to identify enhancers of beta-glucosidase activity. [Related pubchem assays: 784 ]; type: functional
Chain of Lysosomal acid glucosylceramidase (P04062 whole entry): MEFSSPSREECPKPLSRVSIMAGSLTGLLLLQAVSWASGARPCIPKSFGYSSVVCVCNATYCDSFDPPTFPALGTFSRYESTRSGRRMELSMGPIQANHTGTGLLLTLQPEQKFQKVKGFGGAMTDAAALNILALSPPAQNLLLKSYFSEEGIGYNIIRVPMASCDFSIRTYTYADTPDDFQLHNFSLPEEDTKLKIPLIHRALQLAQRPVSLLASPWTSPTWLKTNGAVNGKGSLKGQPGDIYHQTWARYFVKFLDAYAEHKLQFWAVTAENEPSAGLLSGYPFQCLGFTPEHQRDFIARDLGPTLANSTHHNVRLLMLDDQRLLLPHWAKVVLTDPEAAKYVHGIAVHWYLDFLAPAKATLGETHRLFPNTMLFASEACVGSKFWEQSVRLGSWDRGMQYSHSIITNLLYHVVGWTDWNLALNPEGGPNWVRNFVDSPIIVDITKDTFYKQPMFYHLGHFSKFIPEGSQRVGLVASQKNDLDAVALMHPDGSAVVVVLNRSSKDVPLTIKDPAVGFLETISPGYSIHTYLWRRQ

Streptococcus = experiment: Luminescence Microorganism-Based Dose Response Follow up to Identify Compounds Cytotoxic to Streptococcus. [Related pubchem assays: 1677 (Project Summary), 1915, 1914, 1902 (Retest at Dose), 1900 (Counter Screen), 1662 (Primary HTS)]; type: functional, organism-based
[13] = viability loss in Vero cells – cytotoxicity control for Vif-APOBEC3G degradation inhibitor project, dose response (AID 1117358); type: functional; conditions: Vero
Cytochrome P450 2D6 = Cytochrome P450 2D6 (Homo sapiens, UniProt P10635);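 note: CYP2D6 member of a cytochrome P450 panel assay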
Chain of Cytochrome P450 2D6 (P10635 whole entry): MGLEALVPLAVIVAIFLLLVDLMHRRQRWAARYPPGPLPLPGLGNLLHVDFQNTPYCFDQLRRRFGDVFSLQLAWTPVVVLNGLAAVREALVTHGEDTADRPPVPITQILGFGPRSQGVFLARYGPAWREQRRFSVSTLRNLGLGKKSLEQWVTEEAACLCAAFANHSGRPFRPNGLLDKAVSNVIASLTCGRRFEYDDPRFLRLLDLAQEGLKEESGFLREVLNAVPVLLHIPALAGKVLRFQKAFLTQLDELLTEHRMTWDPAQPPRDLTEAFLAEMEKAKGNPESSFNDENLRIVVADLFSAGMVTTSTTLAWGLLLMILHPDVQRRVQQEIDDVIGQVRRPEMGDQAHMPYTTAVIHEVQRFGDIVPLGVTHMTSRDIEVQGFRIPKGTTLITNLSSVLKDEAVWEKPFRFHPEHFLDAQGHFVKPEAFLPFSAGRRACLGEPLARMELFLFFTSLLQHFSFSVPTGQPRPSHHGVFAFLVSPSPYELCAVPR

[14] = A Cell Based Secondary Assay To Explore Cytotoxicity of Compounds that Sensitize Mycobacterium Tuberculosis to Beta-Lactam Antibiotics.; type: functional
[15] = target: Voltage-gated inwardly rectifying potassium channel KCNH2 (Homo sapiens, UniProt Q12809); experiment: concentration-dependent hERG rescue from blockers – cell-based, thallium flux, dose response (AID 2121); type: ADME
Chain of Voltage-gated inwardly rectifying potassium channel KCNH2 (Q12809 whole entry): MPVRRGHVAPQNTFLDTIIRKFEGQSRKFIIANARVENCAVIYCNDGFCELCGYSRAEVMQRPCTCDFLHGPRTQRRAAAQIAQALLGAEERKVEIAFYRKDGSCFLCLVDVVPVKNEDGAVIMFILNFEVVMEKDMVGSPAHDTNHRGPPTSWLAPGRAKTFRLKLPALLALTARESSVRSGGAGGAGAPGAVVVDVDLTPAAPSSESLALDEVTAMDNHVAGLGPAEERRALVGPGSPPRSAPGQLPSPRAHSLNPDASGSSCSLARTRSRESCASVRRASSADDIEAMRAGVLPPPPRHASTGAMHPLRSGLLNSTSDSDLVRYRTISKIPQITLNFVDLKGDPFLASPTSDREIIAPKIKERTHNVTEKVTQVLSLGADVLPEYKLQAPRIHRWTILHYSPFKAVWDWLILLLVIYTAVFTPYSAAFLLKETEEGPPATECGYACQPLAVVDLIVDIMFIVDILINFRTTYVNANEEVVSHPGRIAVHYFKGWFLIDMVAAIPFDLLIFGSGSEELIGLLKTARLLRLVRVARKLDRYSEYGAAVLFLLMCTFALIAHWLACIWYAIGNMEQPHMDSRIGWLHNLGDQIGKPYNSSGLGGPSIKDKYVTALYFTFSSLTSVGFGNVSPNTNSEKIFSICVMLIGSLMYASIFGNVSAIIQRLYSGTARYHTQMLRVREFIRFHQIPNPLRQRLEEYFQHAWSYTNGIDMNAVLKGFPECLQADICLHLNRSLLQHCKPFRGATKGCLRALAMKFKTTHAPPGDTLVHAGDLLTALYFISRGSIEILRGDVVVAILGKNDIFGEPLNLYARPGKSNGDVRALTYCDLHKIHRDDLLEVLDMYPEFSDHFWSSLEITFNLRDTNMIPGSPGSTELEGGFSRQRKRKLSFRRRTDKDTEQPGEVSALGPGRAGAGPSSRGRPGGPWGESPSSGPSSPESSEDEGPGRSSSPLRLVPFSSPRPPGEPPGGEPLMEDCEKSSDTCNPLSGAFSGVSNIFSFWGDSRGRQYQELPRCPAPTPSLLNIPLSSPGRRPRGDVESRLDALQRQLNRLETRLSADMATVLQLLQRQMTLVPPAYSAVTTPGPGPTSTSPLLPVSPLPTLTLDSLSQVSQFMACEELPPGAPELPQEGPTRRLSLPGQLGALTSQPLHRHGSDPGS

[16] = growth inhibition of yeast DHODH-expressing 3D7 parasites – SYBR Green, dry powder samples, dose response (AID 1159570); type: functional, cell-based;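 note: parasite growth measured after 72 hours of compound exposure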
[17] = toxicity to human HepG2 hepatoma cells – cell-based, plate reader, dry powder samples, cytotoxicity control, dose response (AID 1159569); type: functional;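 note: inhibitor potency with signal falling toward the positive control level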
[18] = P. falciparum Dd2 growth inhibitors, dose response, SYBR Green, cherry-picked samples (AID 1159567); type: functional, cell-based
[19] = Dd2 malaria parasite growth inhibition potency – SYBR Green, dry powder samples, dose response (AID 1159566); type: functional, cell-based;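 note: potency for growth inhibition with lower SYBR green DNA signal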
[20] = toxicity to human hepatoma HepG2 cells – cell-based, cherry-picked samples, cytotoxicity control, dose response (AID 1159577); type: functional
[21] = growth inhibition of PfATP4-mutant resistant parasites – NITD609-resistant line, SYBR Green, dry powder, dose response (AID 1159571); type: functional, cell-based;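 note: parasites synchronized at ring stage by sorbitol before testing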
[22] = Luminescence Cell-Based Dose Confirmation HTS to Identify Activators of 5'UTR Stem-Loop Driven Alpha-Synuclein mRNA Translation in H4 Neuroglioblastoma Cells. [Related pubchem assays: 1829 (Project Summary), 1814 (Primary HTS)]; type: functional
[23] = Luminescence Cell-Based Dose Response HTS to Identify Activators of Luciferase Translation or Activity in H4 […] Cells. [Related pubchem assays: 1829 (Project Summary), 1814 (Primary HTS)]; type: functional
H4 = experiment: Luminescence Cell-Based Dose Response HTS to Identify Activators of 5'UTR Stem-Loop Driven Prion Protein mRNA Translation in H4 Neuroglioblastoma Cells. [Related pubchem assays: 1829 (Project Summary), 1814 (Primary HTS)]; type: functional; conditions: Homo sapiens
cells [24] = experiment: cells; remark: listed apart in the source
Large T antigen = Large T antigen (Simian virus 40, UniProt P03070); type: functional, Betapolyomavirus macacae;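 note: Confirmatory-stage PubChem screen for compounds that inhibit SV40 T antigen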
Chain of Large T antigen (P03070 whole entry): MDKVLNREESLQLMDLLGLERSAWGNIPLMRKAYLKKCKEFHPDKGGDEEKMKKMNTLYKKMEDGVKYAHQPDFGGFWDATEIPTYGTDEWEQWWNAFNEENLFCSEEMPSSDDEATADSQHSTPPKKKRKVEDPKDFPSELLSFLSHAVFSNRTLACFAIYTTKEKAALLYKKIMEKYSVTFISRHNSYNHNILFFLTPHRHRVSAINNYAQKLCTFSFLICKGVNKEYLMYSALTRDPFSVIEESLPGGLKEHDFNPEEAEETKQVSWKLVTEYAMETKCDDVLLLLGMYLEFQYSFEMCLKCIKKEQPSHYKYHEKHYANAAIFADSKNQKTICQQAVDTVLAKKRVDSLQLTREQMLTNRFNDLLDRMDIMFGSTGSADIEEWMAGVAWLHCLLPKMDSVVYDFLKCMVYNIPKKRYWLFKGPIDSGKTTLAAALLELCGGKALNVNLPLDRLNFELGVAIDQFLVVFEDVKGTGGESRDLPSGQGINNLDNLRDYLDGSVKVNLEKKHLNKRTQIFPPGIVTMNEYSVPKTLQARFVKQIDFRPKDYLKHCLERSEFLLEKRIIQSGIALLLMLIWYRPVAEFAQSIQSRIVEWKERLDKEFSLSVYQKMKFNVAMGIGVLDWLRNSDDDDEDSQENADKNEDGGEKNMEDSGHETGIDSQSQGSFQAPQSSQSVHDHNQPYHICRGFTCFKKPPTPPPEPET

Protein Tat = Protein Tat (Human immunodeficiency virus type 1 group M subtype B (isolate HXB2)(HIV-1), UniProt P04608); type: functional;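 note: tat binding to TAR RNA read out by fluorescence polarization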
Chain of Protein Tat (P04608 whole entry): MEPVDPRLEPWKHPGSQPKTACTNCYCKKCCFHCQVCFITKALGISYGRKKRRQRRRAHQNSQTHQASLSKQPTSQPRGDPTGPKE

[25] = target: Peroxisome proliferator-activated receptor gamma/Nuclear receptor corepressor 2 (Homo sapiens, UniProt P37231+Q9Y618); experiment: Counterscreen for NR2E3 inverse agonists: TR-FRET-based biochemical high throughput dose response assay to identify inverse agonists of the interaction between peroxisome proliferator-activated receptor gamma (PPARg) and nuclear receptor co-repressor 2 (NCOR2).; type: functional
[26] = target: Photoreceptor-specific nuclear receptor (Homo sapiens, UniProt Q9Y5X4); experiment: ligands suppressing NR2E3 nuclear receptor activity – biochemical, TR-FRET, dose response (AID 463256); type: functional
Chain of Photoreceptor-specific nuclear receptor (Q9Y5X4 whole entry): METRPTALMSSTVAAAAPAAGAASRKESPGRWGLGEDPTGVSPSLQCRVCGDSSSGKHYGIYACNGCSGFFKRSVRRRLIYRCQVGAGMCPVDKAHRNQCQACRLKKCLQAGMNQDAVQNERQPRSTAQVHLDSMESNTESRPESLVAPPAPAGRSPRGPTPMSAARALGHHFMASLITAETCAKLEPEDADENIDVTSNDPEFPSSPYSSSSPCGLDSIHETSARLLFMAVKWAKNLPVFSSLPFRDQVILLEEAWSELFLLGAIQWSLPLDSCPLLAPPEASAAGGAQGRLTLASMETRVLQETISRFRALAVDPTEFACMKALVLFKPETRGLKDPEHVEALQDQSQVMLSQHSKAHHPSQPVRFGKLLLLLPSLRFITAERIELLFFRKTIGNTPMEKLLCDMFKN

[27] = CellTiter-Glo luminescence survival assay, SW480 colon tumor line, concentration-response curve, half-maximal inhibitory concentration (AID 1117338); type: functional
[28] = Reduced DLD-1 viability, concentration-response, CellTiter-Glo luminescence (AID 1117352); type: functional
NS3 = NS3 (Hepatitis C virus, UniProt A3EZJ3); experiment: PubChem AID 2173; design: species or system Hepacivirus hominis
Chain of NS3 (A3EZJ3 whole entry): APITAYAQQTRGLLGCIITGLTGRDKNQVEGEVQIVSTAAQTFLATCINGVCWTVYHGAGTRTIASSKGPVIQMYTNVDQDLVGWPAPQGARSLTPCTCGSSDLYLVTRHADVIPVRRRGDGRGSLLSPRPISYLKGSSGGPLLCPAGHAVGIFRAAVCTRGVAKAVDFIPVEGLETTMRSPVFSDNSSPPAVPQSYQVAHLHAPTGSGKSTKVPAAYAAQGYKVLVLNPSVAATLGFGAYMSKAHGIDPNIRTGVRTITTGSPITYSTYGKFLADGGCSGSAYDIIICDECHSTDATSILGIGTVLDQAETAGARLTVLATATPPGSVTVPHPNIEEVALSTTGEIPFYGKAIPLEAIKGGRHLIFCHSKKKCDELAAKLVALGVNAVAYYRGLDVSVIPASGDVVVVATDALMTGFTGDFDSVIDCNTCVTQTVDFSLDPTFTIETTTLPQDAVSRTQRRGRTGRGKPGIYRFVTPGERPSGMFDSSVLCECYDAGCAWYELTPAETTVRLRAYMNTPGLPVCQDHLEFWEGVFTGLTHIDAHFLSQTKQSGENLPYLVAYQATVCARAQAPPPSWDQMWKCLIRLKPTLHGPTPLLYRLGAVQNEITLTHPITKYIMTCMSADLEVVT

[29] = target: Glucose-6-phosphate 1-dehydrogenase (Homo sapiens, UniProt P11413); experiment: inhibition of Homo sapiens G6PD, dose series – biochemical, fluorescence, selectivity assay for P. falciparum G6PD inhibitor project, dose response (AID 504792); type: functional
Chain of Glucose-6-phosphate 1-dehydrogenase (P11413 whole entry): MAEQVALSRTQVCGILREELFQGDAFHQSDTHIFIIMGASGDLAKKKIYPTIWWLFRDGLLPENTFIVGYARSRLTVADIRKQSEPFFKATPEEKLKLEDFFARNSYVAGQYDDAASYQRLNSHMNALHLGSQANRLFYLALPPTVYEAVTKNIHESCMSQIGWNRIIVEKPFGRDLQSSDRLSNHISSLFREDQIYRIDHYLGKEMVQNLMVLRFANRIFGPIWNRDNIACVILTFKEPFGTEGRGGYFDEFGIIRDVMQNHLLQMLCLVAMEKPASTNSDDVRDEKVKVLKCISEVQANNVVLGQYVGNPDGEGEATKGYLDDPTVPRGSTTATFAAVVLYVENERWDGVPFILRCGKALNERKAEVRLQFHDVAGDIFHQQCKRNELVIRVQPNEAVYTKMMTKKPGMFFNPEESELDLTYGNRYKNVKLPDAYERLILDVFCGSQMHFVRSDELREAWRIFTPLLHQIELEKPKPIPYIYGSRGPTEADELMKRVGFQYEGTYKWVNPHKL

[30] = target: T1, Heat shock factor protein 1 (Mus musculus, UniProt P38532); experiment: enhancement of HSF1-driven luciferase signal – cell-based, NIH3T3, luminescence, dose retest, confirmation (AID 435004); type: functional;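 note: stress induced by proteasome inhibitor MG132 added 30 min after compound; luciferase reporter driven by HSF1 response element in NIH3T3 cells; actives raise luminescence as potentiators of the MG132 stress response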
T1 sequence (P38532 whole entry): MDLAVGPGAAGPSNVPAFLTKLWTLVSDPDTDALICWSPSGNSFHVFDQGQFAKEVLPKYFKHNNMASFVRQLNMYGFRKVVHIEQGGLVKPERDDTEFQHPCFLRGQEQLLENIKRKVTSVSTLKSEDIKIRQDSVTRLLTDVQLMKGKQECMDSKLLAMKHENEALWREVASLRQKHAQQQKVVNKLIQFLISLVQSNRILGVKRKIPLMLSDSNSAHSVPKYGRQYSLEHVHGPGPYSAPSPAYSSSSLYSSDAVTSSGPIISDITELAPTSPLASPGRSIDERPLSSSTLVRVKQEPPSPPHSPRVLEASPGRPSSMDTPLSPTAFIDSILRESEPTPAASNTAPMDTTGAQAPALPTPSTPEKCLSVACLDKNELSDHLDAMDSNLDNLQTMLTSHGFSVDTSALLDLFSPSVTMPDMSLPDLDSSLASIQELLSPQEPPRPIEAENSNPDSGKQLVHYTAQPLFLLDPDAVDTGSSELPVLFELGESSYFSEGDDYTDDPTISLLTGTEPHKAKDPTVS

[31] = target: T2, Endoribonuclease toxin MazF (Escherichia coli K-12, UniProt P0AE70); experiment: activation of MazEF endoribonuclease cleavage – biochemical, fluorescence, single-stranded RNA substrate, uHTS hits, dose response (AID 588481); type: functional
T2 sequence (P0AE70 whole entry): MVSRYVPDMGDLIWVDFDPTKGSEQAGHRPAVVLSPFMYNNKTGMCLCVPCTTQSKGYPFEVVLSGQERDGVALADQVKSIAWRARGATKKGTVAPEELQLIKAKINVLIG

[32] = target: T3, Heat shock protein HSP 90-alpha (Homo sapiens, UniProt P07900); type: functional, organism-based
[33] = target: T2, Endoribonuclease toxin MazF; experiment: substrate-only fluorescence increase artefacts – biochemical, single-stranded RNase substrate, counter-screen for MazEF activator project, dose response (AID 588502); type: functional
Caspase-6 = target: T4, Caspase-6 (Homo sapiens, UniProt P55212); experiment: inhibition of CASP6 peptide cleavage – biochemical, VEID-R110 fluorescence, cherry-pick, dose response (AID 720632)
T4 sequence (P55212 whole entry): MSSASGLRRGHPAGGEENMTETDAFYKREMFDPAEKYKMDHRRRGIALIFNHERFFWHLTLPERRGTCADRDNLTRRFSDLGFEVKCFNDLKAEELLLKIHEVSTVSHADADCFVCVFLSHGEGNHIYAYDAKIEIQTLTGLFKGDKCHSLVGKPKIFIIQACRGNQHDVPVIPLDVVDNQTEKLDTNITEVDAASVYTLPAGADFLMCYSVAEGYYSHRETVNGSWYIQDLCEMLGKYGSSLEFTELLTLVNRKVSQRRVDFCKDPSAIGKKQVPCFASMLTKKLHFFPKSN

[34] = viability of uninfected HEp-2 cells – cell-based, HTS, cytotoxicity control for RSV inhibitor project, dose response (AID 2410); type: functional; conditions: human respiratory syncytial virus
Vero = experiment: cells; type: functional, cell-based; conditions: Chlorocebus sabaeus
[35] = target: T3, Heat shock protein HSP 90-alpha; experiment: Luminescence-based dose response biochemical high throughput screening assay for inhibitors of the Heat Shock Protein 90 (HSP90). [Related pubchem assays: 1831 (Summary AID.), 1846 (Confirmation screen.), 1789 (Primary screen.)]

Chain of Mitogen-activated protein kinase 10 (P53779 whole entry): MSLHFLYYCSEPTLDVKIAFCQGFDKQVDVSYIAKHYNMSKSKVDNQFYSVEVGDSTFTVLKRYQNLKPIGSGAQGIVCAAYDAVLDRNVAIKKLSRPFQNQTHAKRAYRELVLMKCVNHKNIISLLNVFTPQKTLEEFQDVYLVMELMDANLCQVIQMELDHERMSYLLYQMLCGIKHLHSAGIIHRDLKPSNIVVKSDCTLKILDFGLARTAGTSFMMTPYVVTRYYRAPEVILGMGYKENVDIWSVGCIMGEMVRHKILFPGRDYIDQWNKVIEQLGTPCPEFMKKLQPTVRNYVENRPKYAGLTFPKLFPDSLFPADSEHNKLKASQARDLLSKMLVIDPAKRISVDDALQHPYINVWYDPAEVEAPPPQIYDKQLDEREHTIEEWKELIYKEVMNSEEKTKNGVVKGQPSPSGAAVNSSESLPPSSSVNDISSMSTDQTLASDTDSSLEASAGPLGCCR

SMILES: Cc1ccc2c(C)nc(NC3=NCN(Cc4ccccc4)CN3)nc2c1
- IC50 [1]: > 93.1 µM (not active)

SMILES: COc1cccc2c1C(=O)c1c(O)c3c(c(O)c1C2=O)C[C@@](O)(C(=O)CO)C[C@@H]3O[C@H]1C[C@H](N)[C@H](O[C@@H]2CCCCO2)[C@H](C)O1 [PIRARUBICIN]
- IC50 [2]: 0.0795 µM (active)
- IC50 [3]: 1.01 µM (active)
- IC50 [4]: 0.911 µM (active)
- IC50 [5]: 2.01 µM (active)
- IC50 [6]: 0.0806 µM (active)
- IC50 [7]: > 20 µM (inactive)
- IC50 [8]: 1.28 µM (active)

SMILES: CCOC(=O)C1CCCN(Cc2ccc(OCc3ccccc3)c(OC)c2)C1 (centres undefined)
- EC50 [9]: < 0.1 µM (active)
- EC50 [10]: > 60 µM (not active)
- EC50 (cells [11]): 0.01 µM (active)

SMILES: Cc1cccc2sc(NC(=O)CN(C)S(=O)(=O)c3cccs3)nc12
- EC50 [12]: > 10 µM (not active)

SMILES: CN(C)c1ccc(C(=O)n2c3ccccc3c3ccccc32)cc1
- EC50 (Streptococcus): > 500 µM (not active)

SMILES: CCC(C)N1C(=O)S/C(=C/c2ccc(Sc3nc4ccccc4[nH]3)o2)C1=O (centres undefined)
- CC50 [13]: 28.7 µM (active)
- AC50 (Cytochrome P450 2D6): 3.98 µM (inconclusive)

SMILES: CCCCN(CC)S(=O)(=O)c1ccc(C(=O)Nc2nnc(CSC)o2)cc1
- EC50 [12]: > 10 µM (not active)
- CC50 [14]: 13.9 µM (active)
- AC50 (Cytochrome P450 2D6): 35.5 µM (inconclusive)

SMILES: Cc1ccc(C(=O)CC(=O)COc2ccc(Cl)cc2C)cc1
- EC50 [15]: 0.82 µM (active)

SMILES: OC[C@@H]1Nc2ccc(-c3cccc(F)c3)cc2[C@@H]2[C@H]1CCN2Cc1ccncc1
- AC50 [16]: 2.02 µM (active)
- AC50 [17]: 29.5 µM (active)
- AC50 [18]: 1.27 µM (active)
- AC50 [19]: 0.638 µM (active)
- AC50 [20]: 27.6 µM (active)
- AC50 [21]: 0.814 µM (active)

SMILES: c1ccc(CNc2ncnc3c2cnn3-c2ccccc2)cc1
- EC50 [22]: > 120 µM (not active)
- EC50 [23]: 3.43 µM (active)
- EC50 (H4): > 120 µM (not active)
- IC50 [1]: 75.8 µM (not active)

SMILES: Nc1nnnn1/N=C/c1ccc(O)cc1
- IC50 (cells [24]): 2.58 µM (active)

SMILES: CCN(C(=O)CN1CCN(c2ccc(O)cc2)CC1)c1c(N)n(Cc2ccccc2)c(=O)[nH]c1=O
- IC50 (Large T antigen): 7.74 µM (active)
- IC50 (Protein Tat): 68.5 µM (inconclusive)
- CC50 [13]: > 40 µM (active)

SMILES: COc1ccc2cc3cc(C(=O)NCc4cccs4)oc3nc2c1
- IC50 [25]: 12.9 µM (not active)
- IC50 [26]: 10.7 µM (not active)

SMILES: CC(C)(C)[C@H]1CC[C@H](CC2=C(O)C(=O)c3ccccc3C2=O)CC1 [BUPARVAQUONE]
- IC50 [2]: > 10 µM (inactive)
- IC50 [27]: 0.205 µM (active)
- IC50 [3]: 0.133 µM (active)
- IC50 [4]: 0.227 µM (active)
- IC50 [5]: 0.255 µM (active)
- IC50 [6]: > 10 µM (inactive)
- IC50 [7]: 3.39 µM (active)
- IC50 [28]: 0.218 µM (active)

SMILES: CC1=CN2C(=N)/C(=C/c3ccc([N+](=O)[O-])o3)C(=O)N=C2S1
- IC50 (NS3): 9.08 µM (active)
- IC50 [29]: > 80 µM (inactive)
- EC50 [30]: 30.1 µM (inconclusive)
- EC50 [31]: > 99 µM (inactive)
- AC50 [32]: 2.57 µM (active)
- EC50 [33]: 23.8 µM (inactive)
- AC50 (Caspase-6): 5.85 µM (active)

SMILES: Cc1nn(Cc2c(Cl)cccc2Cl)c(C)c1NC(=O)c1cc(C(C)C)on1
- CC50 [34]: 16.8 µM (active)
- IC50 (Vero): 10.5 µM (active)
- IC50 (cells [24]): 11.3 µM (active)

SMILES: O=S(=O)(Cc1ccccc1)N(O)c1ccccc1
- IC50 [35]: 0.913 µM (active)
